Experimental data taken from PMC12090182, “Repurposing of the RIPK1-Selective Benzo[1,4]oxazepin-4-one Scaffold for the Development of a Type III LIMK1/2 Inhibitor” (ACS Chemical Biology, 2025).

Legend:
Assay in all cases: scanMAX KINOMEscan (Eurofins)
Format in all cases: binding
[1] = molecular target: DDR1 (Homo sapiens, UniProt Q08345); conditions: read-out: Percent Control
From the text: (§1) Supplement cb5c00097_si_002.xlsx, sheet "Table S6 (Eurofins Selectivity)" | column: Percent Control

[2] = molecular target: MEK1 (Homo sapiens, UniProt Q02750); conditions: compound concentration 100 nM; Entrez MAP2K1; read-out: Percent Control
From the text: as §1

[3] = molecular target: FRK (Homo sapiens, UniProt P42685); conditions: 1000 nM, read-out: Percent Control
From the text: as §1

[4] = molecular target: ROCK1 (Homo sapiens, UniProt Q13464); conditions: 1000 nM, read-out: Percent Control
From the text: as §1

[5] = molecular target: MLCK (Homo sapiens, UniProt Q32MK0); conditions: 1000 nM, read-out: Percent Control
From the text: as §1

[6] = molecular target: SRMS (Homo sapiens, UniProt Q9H3Y6); conditions: compound concentration 100 nM; Entrez SRMS; read-out: Percent Control
From the text: as §1

[7] = molecular target: MARK3 (Homo sapiens, UniProt P27448); conditions: 1000 nM, read-out: Percent Control
From the text: as §1

[8] = molecular target: MET (Homo sapiens, UniProt P08581); conditions: 1000 nM, read-out: Percent Control
From the text: as §1

[9] = molecular target: AMPK-alpha1 (Homo sapiens, UniProt Q13131); conditions: 1000 nM, read-out: Percent Control
From the text: as §1

[10] = molecular target: PDPK1 (Homo sapiens, UniProt O15530); conditions: 1000 nM, read-out: Percent Control
From the text: as §1

[11] = molecular target: IRAK1 (Homo sapiens, UniProt P51617); conditions: read-out: Percent Control
From the text: as §1

[12] = molecular target: MINK (Homo sapiens, UniProt Q8N4C8); conditions: 1000 nM, read-out: Percent Control
From the text: as §1

[13] = molecular target: NEK1 (Homo sapiens, UniProt Q96PY6); conditions: compound concentration 100 nM; Entrez NEK1; read-out: Percent Control
From the text: as §1

[14] = molecular target: MAPKAPK5 (Homo sapiens, UniProt Q8IW41); conditions: compound concentration 100 nM; Entrez MAPKAPK5; read-out: Percent Control
From the text: as §1

[15] = molecular target: JAK2(JH1domain-catalytic) (Homo sapiens, UniProt O60674); conditions: compound concentration 100 nM; Entrez JAK2; read-out: Percent Control
From the text: as §1

[16] = molecular target: EPHA8 (Homo sapiens, UniProt P29322); conditions: 1000 nM, read-out: Percent Control
From the text: as §1

[17] = molecular target: PRKX (Homo sapiens, UniProt P51817); conditions: 1000 nM, read-out: Percent Control
From the text: as §1

[18] = molecular target: CAMK4 (Homo sapiens, UniProt Q16566); conditions: 1000 nM, read-out: Percent Control
From the text: as §1

[19] = molecular target: BMPR1B (Homo sapiens, UniProt O00238); conditions: read-out: Percent Control
From the text: as §1

[20] = molecular target: EPHB2 (Homo sapiens, UniProt P29323); conditions: 1000 nM, read-out: Percent Control
From the text: as §1

[21] = molecular target: CTK (Homo sapiens, UniProt P42679); conditions: 1000 nM, read-out: Percent Control
From the text: as §1

[22] = molecular target: AURKA (Homo sapiens, UniProt O14965); conditions: 1000 nM, read-out: Percent Control
From the text: as §1

[23] = molecular target: PIP5K2B (Homo sapiens, UniProt P78356); conditions: 1000 nM, read-out: Percent Control
From the text: as §1

[24] = molecular target: EPHA5 (Homo sapiens, UniProt P54756); conditions: 1000 nM, read-out: Percent Control
From the text: as §1

[25] = molecular target: PKNB(M.tuberculosis) (Mycobacterium tuberculosis, UniProt P9WI81); conditions: 1000 nM, read-out: Percent Control
From the text: as §1

[26] = molecular target: GRK1 (Homo sapiens, UniProt Q15835); conditions: read-out: Percent Control
From the text: as §1

[27] = molecular target: CAMK1G (Homo sapiens, UniProt Q96NX5); conditions: 1000 nM, read-out: Percent Control
From the text: as §1

[28] = molecular target: RPS6KA4(Kin.Dom.2-C-terminal) (Homo sapiens, UniProt O75676); conditions: compound concentration 100 nM; Entrez RPS6KA4; read-out: Percent Control
From the text: as §1

[29] = molecular target: PDGFRB (Homo sapiens, UniProt P09619); conditions: 1000 nM, read-out: Percent Control
From the text: as §1

[30] = molecular target: CDC2L2 (Homo sapiens, UniProt Q9UQ88); conditions: 1000 nM, read-out: Percent Control
From the text: as §1

[31] = molecular target: TNK2 (Homo sapiens, UniProt Q07912); conditions: read-out: Percent Control
From the text: as §1

[32] = molecular target: ASK2 (Homo sapiens, UniProt O95382); conditions: 1000 nM, read-out: Percent Control
From the text: as §1

[33] = molecular target: GSK3B (Homo sapiens, UniProt P49841); conditions: read-out: Percent Control
From the text: as §1

[34] = molecular target: SRC (Homo sapiens, UniProt P12931); conditions: compound concentration 100 nM; Entrez SRC; read-out: Percent Control
From the text: as §1

[35] = molecular target: MELK (Homo sapiens, UniProt Q14680); conditions: compound concentration 100 nM; Entrez MELK; read-out: Percent Control
From the text: as §1

[36] = molecular target: MST4 (Homo sapiens, UniProt Q9P289); conditions: 1000 nM, read-out: Percent Control
From the text: as §1

Chain of TNK2 (Q07912 whole entry): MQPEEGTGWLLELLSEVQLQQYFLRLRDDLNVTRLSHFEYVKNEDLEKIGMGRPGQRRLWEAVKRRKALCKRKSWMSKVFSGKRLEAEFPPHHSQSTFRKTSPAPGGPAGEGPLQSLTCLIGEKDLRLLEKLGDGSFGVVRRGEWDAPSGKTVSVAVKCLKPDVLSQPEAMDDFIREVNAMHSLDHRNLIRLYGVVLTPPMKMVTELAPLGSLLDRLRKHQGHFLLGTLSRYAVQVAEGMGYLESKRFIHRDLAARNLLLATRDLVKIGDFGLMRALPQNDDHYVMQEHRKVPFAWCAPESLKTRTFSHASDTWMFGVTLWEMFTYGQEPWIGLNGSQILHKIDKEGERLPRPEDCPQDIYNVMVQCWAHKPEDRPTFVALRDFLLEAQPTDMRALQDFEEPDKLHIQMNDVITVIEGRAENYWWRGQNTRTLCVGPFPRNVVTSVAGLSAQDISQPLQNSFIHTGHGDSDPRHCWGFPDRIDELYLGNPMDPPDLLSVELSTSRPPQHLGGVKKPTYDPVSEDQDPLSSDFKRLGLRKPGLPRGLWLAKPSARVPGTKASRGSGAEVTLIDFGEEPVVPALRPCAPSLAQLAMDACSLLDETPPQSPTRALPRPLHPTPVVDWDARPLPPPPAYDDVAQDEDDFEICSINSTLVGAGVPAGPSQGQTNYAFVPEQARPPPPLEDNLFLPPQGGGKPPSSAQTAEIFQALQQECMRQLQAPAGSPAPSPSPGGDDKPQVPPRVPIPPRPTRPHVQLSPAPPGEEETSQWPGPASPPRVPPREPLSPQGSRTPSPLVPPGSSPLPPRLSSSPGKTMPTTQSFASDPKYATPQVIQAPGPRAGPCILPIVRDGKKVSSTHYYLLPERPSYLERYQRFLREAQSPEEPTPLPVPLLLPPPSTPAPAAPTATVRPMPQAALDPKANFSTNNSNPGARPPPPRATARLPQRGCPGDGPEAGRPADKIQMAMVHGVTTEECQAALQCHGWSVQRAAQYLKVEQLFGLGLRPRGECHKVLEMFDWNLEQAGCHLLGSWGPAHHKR
Chain of IRAK1 (P51617 whole entry): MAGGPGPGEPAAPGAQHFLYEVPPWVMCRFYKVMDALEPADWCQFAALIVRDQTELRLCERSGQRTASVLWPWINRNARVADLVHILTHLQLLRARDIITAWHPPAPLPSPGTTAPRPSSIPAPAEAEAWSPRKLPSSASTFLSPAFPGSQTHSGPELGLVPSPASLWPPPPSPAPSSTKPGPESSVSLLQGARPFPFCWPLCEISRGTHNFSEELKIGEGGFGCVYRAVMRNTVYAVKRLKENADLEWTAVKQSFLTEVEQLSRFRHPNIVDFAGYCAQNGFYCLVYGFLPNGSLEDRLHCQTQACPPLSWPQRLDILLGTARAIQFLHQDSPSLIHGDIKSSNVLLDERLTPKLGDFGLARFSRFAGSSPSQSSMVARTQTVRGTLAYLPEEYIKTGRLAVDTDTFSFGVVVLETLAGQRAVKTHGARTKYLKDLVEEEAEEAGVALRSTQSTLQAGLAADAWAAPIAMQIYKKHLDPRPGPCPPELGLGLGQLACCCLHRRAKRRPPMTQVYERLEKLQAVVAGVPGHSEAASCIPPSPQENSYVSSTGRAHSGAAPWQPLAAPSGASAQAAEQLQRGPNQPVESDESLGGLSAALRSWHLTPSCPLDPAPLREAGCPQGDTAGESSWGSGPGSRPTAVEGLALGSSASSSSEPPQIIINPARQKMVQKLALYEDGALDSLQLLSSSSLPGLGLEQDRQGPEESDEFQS
Chain of GRK1 (Q15835 whole entry): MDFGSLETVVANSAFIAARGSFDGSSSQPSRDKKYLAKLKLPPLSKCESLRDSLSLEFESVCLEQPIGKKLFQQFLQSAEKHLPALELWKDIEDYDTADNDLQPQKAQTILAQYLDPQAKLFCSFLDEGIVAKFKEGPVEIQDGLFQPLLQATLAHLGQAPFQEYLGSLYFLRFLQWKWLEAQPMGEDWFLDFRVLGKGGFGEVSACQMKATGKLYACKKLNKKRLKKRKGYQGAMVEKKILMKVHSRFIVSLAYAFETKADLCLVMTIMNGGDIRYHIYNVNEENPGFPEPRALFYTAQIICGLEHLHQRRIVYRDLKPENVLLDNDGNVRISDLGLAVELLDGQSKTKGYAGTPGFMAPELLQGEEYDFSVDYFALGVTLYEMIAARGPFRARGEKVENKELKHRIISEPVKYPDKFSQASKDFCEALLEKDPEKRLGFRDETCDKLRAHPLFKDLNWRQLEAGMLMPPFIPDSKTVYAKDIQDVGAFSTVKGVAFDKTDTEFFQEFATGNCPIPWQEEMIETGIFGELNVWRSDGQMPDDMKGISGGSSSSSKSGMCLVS
Chain of BMPR1B (O00238 14-502): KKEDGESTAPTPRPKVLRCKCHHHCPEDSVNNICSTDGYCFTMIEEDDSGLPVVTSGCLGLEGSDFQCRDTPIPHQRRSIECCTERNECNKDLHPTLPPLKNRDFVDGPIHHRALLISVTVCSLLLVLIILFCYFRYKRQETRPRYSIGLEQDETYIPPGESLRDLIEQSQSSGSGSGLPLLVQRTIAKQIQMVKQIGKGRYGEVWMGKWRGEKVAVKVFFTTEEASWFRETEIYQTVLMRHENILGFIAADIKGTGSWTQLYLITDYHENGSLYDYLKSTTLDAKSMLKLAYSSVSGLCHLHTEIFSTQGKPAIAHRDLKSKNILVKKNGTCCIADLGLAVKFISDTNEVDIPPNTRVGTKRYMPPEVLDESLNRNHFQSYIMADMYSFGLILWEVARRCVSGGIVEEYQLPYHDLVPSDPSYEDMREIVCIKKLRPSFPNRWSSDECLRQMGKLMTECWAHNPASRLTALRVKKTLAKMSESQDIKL
Chain of GSK3B (P49841 whole entry): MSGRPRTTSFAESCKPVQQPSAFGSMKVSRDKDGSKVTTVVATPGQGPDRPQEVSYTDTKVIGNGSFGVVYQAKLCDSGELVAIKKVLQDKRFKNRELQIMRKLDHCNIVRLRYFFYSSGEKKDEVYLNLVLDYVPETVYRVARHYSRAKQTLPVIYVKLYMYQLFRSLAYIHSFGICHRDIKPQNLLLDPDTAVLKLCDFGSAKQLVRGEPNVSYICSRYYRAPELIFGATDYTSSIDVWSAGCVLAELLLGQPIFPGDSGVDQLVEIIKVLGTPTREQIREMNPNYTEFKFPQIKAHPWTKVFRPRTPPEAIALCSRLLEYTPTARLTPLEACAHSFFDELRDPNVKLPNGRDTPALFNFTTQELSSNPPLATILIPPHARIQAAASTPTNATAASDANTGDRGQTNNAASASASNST
Chain of DDR1 (Q08345 19-913): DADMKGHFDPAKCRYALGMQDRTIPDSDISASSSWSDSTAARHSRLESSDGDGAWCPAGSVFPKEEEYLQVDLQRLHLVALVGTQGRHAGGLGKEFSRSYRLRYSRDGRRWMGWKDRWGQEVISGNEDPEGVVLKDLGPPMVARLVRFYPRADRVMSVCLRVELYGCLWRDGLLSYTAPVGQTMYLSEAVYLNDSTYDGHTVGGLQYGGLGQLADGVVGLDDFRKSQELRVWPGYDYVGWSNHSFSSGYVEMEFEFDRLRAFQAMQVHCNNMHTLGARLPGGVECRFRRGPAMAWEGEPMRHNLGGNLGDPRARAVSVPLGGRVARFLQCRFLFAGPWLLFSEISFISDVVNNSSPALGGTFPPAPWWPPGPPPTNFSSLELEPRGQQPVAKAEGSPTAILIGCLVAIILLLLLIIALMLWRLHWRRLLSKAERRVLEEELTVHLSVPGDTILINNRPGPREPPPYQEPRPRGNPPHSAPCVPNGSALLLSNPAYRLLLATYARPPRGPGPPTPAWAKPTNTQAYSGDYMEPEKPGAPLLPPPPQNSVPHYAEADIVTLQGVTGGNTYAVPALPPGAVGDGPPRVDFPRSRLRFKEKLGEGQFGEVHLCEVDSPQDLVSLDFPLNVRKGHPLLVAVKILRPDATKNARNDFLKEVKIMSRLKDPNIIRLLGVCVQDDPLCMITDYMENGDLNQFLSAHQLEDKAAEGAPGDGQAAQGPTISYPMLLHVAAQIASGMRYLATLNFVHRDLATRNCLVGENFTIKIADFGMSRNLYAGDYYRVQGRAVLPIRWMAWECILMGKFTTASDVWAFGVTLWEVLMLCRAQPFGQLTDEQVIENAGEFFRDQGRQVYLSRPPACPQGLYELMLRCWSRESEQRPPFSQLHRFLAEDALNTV
Chain of AURKA (O14965 whole entry): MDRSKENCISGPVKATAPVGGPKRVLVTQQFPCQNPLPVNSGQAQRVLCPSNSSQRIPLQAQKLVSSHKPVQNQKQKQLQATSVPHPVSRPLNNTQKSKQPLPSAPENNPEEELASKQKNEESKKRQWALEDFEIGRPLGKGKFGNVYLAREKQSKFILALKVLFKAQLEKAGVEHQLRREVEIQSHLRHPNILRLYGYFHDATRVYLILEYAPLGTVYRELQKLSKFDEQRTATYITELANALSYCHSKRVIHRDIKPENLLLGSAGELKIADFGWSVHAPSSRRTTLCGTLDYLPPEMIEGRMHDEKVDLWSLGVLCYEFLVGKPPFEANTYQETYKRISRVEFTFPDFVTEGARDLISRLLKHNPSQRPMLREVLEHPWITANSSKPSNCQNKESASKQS
Chain of SRMS (Q9H3Y6 whole entry): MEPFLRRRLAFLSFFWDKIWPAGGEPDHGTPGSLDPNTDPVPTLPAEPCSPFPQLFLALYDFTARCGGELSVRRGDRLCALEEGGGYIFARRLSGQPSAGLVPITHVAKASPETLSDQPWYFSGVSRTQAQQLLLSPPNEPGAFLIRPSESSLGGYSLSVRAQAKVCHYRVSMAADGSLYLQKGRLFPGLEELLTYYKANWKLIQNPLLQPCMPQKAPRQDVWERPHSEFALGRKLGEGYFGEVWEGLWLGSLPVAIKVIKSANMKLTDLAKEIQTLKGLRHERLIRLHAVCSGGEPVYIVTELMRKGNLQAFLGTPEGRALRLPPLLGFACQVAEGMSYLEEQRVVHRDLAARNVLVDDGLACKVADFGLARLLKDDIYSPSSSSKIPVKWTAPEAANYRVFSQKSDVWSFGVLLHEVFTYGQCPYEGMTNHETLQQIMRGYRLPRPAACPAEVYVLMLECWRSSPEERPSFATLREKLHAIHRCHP

CN1C(=O)[C@@H](N2CCc3c(nn(Cc4ccccc4)c3C(N)=O)C2=O)COc2cc(Cl)ccc21 [Compound 10, (S)-2-benzyl-6-(8-chloro-5-methyl-4-oxo-2,3,4,5-tetrahydrobenzo[b][1,4]oxazepin-3-yl)-7-oxo-4,5,6,7-tetrahydro-2H-pyrazolo[3,4-c]pyridine-3-carboxamide]
remaining binding at 1 µM ([1]; 1000 nM): 100% | remaining binding at 0.1 µM ([1]; compound concentration 100 nM, Entrez DDR1): 77% | remaining binding at 0.1 µM [2]: 91% | remaining binding at 1 µM [3]: 81% | remaining binding at 1 µM [4]: 69% | remaining binding at 1 µM [5]: 93% | remaining binding at 0.1 µM [6]: 90% | remaining binding at 1 µM [7]: 98% | remaining binding at 1 µM [8]: 94% | remaining binding at 1 µM [9]: 87% | remaining binding at 1 µM [10]: 91% | remaining binding at 1 µM ([11]; 1000 nM): 100% | remaining binding at 0.1 µM ([11]; compound concentration 100 nM, Entrez IRAK1): 100% | remaining binding at 1 µM [12]: 95% | remaining binding at 0.1 µM [13]: 76% | remaining binding at 0.1 µM [14]: 96% | remaining binding at 0.1 µM [15]: 81% | remaining binding at 1 µM [16]: 97% | remaining binding at 1 µM [17]: 78% | remaining binding at 1 µM [18]: 95% | remaining binding at 1 µM ([19]; 1000 nM): 100% | remaining binding at 0.1 µM ([19]; compound concentration 100 nM, Entrez BMPR1B): 88% | remaining binding at 1 µM [20]: 81% | remaining binding at 1 µM [21]: 97% | remaining binding at 1 µM [22]: 72% | remaining binding at 1 µM [23]: 73% | remaining binding at 1 µM [24]: 97% | remaining binding at 1 µM [25]: 83% | remaining binding at 1 µM ([26]; 1000 nM): 100% | remaining binding at 0.1 µM ([26]; compound concentration 100 nM, Entrez GRK1): 100% | remaining binding at 1 µM [27]: 88% | remaining binding at 0.1 µM [28]: 100% | remaining binding at 1 µM [29]: 87% | remaining binding at 1 µM [30]: 86% | remaining binding at 1 µM ([31]; 1000 nM): 98% | remaining binding at 0.1 µM ([31]; compound concentration 100 nM, Entrez TNK2): 89% | remaining binding at 1 µM [32]: 90% | remaining binding at 1 µM ([33]; 1000 nM): 100% | remaining binding at 0.1 µM ([33]; compound concentration 100 nM, Entrez GSK3B): 100% | remaining binding at 0.1 µM [34]: 85% | remaining binding at 0.1 µM [35]: 93% | remaining binding at 1 µM [36]: 92%
